Laboratory results taken from ChEMBL document CHEMBL5346927, “Discovery of a novel 1H-pyrazole- [3,4-b] pyridine-based lysine demethylase 5B inhibitor with potential anti-prostate cancer activity that perturbs the phosphoinositide 3-kinase/AKT pathway” (Eur J Med Chem, 2023).
The source made the active and inactive calls. The rule behind the calls is not given here.

What was measured:
[1] = Tmax in ICR mouse at 25 mg/kg, IG measured at 0.083 to 24 hrs by LC-MS analysis; assay type: ADME, organism-based; conditions: in vivo, po, time 0.083-24 hrs
[2] = Toxicity in BALB/C nude mouse xenografted with human PC-3 cells assessed as lung damage at 25 to 50 mg/kg, IG administered for 25 days by H&E staining based analysis; assay type: organism-based; conditions: in vivo, po, 600 h, dose 25-50 mg/kg, time 25 day
[3] = Cytotoxicity against human WPMY-1 cells incubated for 72 hrs by MTT assay; assay type: toxicity, cell-based
[4] = Toxicity in BALB/C nude mouse xenografted with human PC-3 cells assessed as effect on body weight at 25 to 50 mg/kg, IG administered for 25 days; assay type: organism-based; conditions: in vivo, po, 600 h, dose 25-50 mg/kg, time 25 day
[5] = Acute toxicity in Kunming mouse assessed as effect on spleen at 2 g/Kg, IG measured after 2 weeks by H&E staining based analysis; assay type: tissue-based; conditions: in vivo, po, 2000 mg/kg, 336 h
[6] = Acute toxicity in Kunming mouse assessed as effect on lung at 2 g/Kg, IG measured after 2 weeks by H&E staining based analysis; assay type: tissue-based; conditions: in vivo, po, 2000 mg/kg, 336 h
[7] = Acute toxicity in Kunming mouse assessed as effect on kidney at 2 g/Kg, IG measured after 2 weeks by H&E staining based analysis; assay type: tissue-based; conditions: in vivo, po, 2000 mg/kg, 336 h
PC-3 [8] = assay: Induction of apoptosis in human PC-3 cells assessed as late apoptotic cells at 5 uM incubated for 72 hrs by Annexin V-FITC/PI staining based flow cytometric analysis (reference value: 1.05%); assay type: functional
PC-3 [9] = assay: Induction of apoptosis in human PC-3 cells assessed as viable cells at 2.5 uM incubated for 72 hrs by Annexin V-FITC/PI staining based flow cytometric analysis (reference value: 90.93%); assay type: functional; conditions: read-out: Activity
[10] = Toxicity in BALB/C nude mouse xenografted with human PC-3 cells assessed as kidney damage at 25 to 50 mg/kg, IG administered for 25 days by H&E staining based analysis; assay type: organism-based; conditions: in vivo, po, 600 h, dose 25-50 mg/kg, time 25 day
PC-3 [11] = assay: Induction of apoptosis in human PC-3 cells assessed as necrotic cells at 5 uM incubated for 72 hrs by Annexin V-FITC/PI staining based flow cytometric analysis (reference value: 5.01%); assay type: functional
[12] = AUC (0 to t) in ICR mouse at 25 mg/kg, IG measured at 0.083 to 24 hrs by LC-MS analysis; assay type: ADME, organism-based; parameters: dose 25 mg/kg, time upper 24 hrs, time lower 0.083 hrs, route ig; conditions: in vivo, po
[13] = target: T1, Lysine-specific demethylase 5B (Homo sapiens, UniProt Q9UGL1); assay: Inhibition of KDM5B (unknown origin)
PC-3 [14] = assay: Induction of apoptosis in human PC-3 cells assessed as late apoptotic cells at 10 uM incubated for 72 hrs by Annexin V-FITC/PI staining based flow cytometric analysis (reference value: 1.05%); assay type: functional
PC-3 [15] = assay: Antitumor activity against human PC-3 cells assessed as inhibition of cell proliferation incubated for 72 hrs by MTT assay; assay type: functional, cell-based; conditions: PC-3, 72 h
PC-3 [16] = assay: Induction of apoptosis in human PC-3 cells assessed as viable cells at 10 uM incubated for 72 hrs by Annexin V-FITC/PI staining based flow cytometric analysis (reference value: 90.93%); assay type: functional; conditions: read-out: Activity
PC-3 [17] = assay: Induction of apoptosis in human PC-3 cells assessed as early apoptotic cells at 5 uM incubated for 72 hrs by Annexin V-FITC/PI staining based flow cytometric analysis (reference value: 3.01%); assay type: functional
MCF7 = assay: Antitumor activity against human MCF7 cells assessed as inhibition of cell proliferation incubated for 72 hrs by MTT assay; assay type: functional, cell-based; conditions: MCF7, 72 h
PC-3 [18] = assay: Induction of cell cycle arrest in human PC-3 cells assessed as increase in G2/M phase cell ratio at 2.5 uM incubated for 24 hrs by PI/RNase A staining based flow cytometric analysis (reference value: 16.07%); assay type: functional
[19] = Toxicity in BALB/C nude mouse xenografted with human PC-3 cells assessed as indistinct prostate tube wall at 25 mg/kg, IG administered for 25 days by H&E staining based analysis; assay type: organism-based; conditions: in vivo, po, 600 h, time 25 day
[20] = Oral bioavailability in ICR mouse at 25 mg/kg measured at 0.083 to 24 hrs by LC-MS analysis; assay type: ADME, organism-based; conditions: in vivo, time 0.083-24 hrs
[21] = Acute toxicity in Kunming mouse assessed as effect on survival at 2 g/Kg, IG measured after 2 weeks; conditions: in vivo, po, 2000 mg/kg, 336 h
[22] = Half-life in ICR mouse at 5 mg/kg, iv measured at 0.083 to 24 hrs by LC-MS analysis; assay type: ADME, organism-based; conditions: in vivo, time 0.083-24 hrs
PC-3 [23] = assay: Inhibition of PI3K/AKT pathway in human PC-3 cells assessed as decrease in AKT phosphorylation at Ser473 residue at 2.5 to 10 uM by Western blot analysis; assay type: cell-based; conditions: dose 2.5-10 µM
[24] = Acute toxicity in Kunming mouse assessed as effect on weight at 2 g/Kg, IG measured after 2 weeks; conditions: in vivo, po, 2000 mg/kg, 336 h
PC-3 [25] = assay: Induction of apoptosis in human PC-3 cells assessed as necrotic cells at 10 uM incubated for 72 hrs by Annexin V-FITC/PI staining based flow cytometric analysis (reference value: 5.01%); assay type: functional
PC-3 [26] = assay: Inhibition of PI3K/AKT pathway in human PC-3 cells assessed as decrease in P110alpha level at 2.5 to 5 uM by Western blot analysis; assay type: cell-based; conditions: dose 2.5-5 µM
[27] = Clearance in ICR mouse at 5 mg/kg, iv measured at 0.083 to 24 hrs by LC-MS analysis; assay type: ADME, organism-based; conditions: in vivo, time 0.083-24 hrs
[28] = Toxicity in BALB/C nude mouse xenografted with human PC-3 cells assessed as prostate gland damage at 25 to 50 mg/kg, IG administered for 25 days by H&E staining based analysis; assay type: organism-based; conditions: in vivo, po, 600 h, dose 25-50 mg/kg, time 25 day
PC-3 [29] = assay: Inhibition of PI3K/AKT pathway in human PC-3 cells assessed as decrease in AKT phosphorylation at Thr308 residue at 2.5 to 10 uM by Western blot analysis; assay type: cell-based; conditions: dose 2.5-10 µM
[30] = Acute toxicity in Kunming mouse assessed as prostate gland damage at 2 g/Kg, IG measured after 2 weeks by H&E staining based analysis; assay type: tissue-based; conditions: in vivo, po, 2000 mg/kg, 336 h
PC-3 [31] = assay: Induction of apoptosis in human PC-3 cells assessed as necrotic cells at 2.5 uM incubated for 72 hrs by Annexin V-FITC/PI staining based flow cytometric analysis (reference value: 5.01%); assay type: functional
[32] = Cmax in ICR mouse at 25 mg/kg, IG measured at 0.083 to 24 hrs by LC-MS analysis; assay type: ADME, organism-based; parameters: time lower 0.083 hrs, dose 25 mg/kg, time upper 24 hrs, route ig; conditions: in vivo, po
HepG2 = assay: Antitumor activity against human HepG2 cells assessed as inhibition of cell proliferation incubated for 72 hrs by MTT assay; assay type: functional, cell-based; conditions: HepG2, 72 h
[33] = Toxicity in BALB/C nude mouse xenografted with human PC-3 cells assessed as heart damage at 25 to 50 mg/kg, IG administered for 25 days by H&E staining based analysis; assay type: organism-based; conditions: in vivo, po, 600 h, dose 25-50 mg/kg, time 25 day
[34] = target: T1, Lysine-specific demethylase 5B; assay: Binding affinity to KDM5B in human PC-3 cells assessed as thermal stability by measuring KDM5B expression level preincubated with compound for 6 hrs followed by 20 mins incubation under 46 to 56 degreeC by CETSA based Western blot analysis; assay type: cell-based; conditions: time 380.0 min
PC-3 [35] = assay: Antitumor activity against human PC-3 cells xenografted in BALB/C nude mice assessed as decrease in tumor volume at 50 mg/kg, IG measured after 13 days; assay type: functional, organism-based; conditions: time 13.0 day

T1 sequence (Q9UGL1 whole entry): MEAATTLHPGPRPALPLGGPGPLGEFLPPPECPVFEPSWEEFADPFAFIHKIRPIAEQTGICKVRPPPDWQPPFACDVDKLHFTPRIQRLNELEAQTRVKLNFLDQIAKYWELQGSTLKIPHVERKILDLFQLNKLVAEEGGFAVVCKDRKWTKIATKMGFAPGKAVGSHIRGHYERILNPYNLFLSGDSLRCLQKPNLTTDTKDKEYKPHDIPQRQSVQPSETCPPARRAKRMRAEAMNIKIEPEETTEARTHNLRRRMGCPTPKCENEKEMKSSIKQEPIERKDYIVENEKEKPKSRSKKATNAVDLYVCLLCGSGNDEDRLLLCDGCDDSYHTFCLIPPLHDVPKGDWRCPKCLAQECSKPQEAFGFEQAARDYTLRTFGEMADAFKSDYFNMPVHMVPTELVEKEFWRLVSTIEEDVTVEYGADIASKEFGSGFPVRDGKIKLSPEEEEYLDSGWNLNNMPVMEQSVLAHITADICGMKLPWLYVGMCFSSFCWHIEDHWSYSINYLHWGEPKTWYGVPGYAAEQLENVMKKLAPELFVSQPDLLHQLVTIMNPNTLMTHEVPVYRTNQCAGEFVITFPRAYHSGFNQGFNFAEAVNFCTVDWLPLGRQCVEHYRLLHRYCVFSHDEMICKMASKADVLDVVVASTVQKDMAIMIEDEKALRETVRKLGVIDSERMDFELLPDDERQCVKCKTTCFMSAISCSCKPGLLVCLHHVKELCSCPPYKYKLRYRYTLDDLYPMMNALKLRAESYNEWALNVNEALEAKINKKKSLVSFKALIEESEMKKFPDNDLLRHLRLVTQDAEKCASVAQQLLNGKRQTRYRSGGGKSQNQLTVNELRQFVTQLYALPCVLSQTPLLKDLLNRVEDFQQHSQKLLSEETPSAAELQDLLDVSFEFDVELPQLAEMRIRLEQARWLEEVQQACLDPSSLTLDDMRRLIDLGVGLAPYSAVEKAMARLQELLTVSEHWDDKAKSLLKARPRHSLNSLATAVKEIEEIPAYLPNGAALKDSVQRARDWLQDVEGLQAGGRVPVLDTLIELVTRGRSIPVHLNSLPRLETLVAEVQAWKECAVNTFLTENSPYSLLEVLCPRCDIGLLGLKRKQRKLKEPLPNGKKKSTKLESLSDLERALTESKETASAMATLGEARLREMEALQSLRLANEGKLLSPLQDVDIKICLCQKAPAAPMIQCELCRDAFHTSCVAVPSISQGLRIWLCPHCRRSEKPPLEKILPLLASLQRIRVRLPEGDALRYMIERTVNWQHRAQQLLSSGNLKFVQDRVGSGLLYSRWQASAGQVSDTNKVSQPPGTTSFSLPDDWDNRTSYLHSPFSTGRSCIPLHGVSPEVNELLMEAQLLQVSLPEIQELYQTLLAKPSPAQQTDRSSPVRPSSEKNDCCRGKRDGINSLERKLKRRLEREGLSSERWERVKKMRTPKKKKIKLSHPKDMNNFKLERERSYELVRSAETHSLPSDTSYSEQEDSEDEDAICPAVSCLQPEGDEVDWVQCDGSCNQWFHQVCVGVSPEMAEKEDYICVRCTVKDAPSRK

## CN1CCN(CCNC(=O)c2cc(-c3ccc4ccccc4c3)nc3c2cnn3-c2ccccc2)CC1
[1]
  Tmax: 6 h
[2]
  Activity: Non-Toxic
[3]
  IC50 at 72 h: 27.9 µM
[4]
  Activity: Non-Toxic
[5]
  Activity: Non-Toxic
[6]
  Activity: Non-Toxic
[7]
  Activity: Non-Toxic
PC-3 [8]
  Activity: 7.54%
PC-3 [9]
  viability at 2.5 µM: 75%
[10]
  Activity: Non-Toxic
PC-3 [11]
  Activity: 18.77%
[12]
  AUCt: 3024.33 ng·h/mL
[13]
  IC50: 25 nM
PC-3 [14]
  Activity: 16.39%
PC-3 [15]
  IC50: 2180 nM
PC-3 [16]
  viability at 10 µM: 58.8%
PC-3 [17]
  Activity: 0.64%
MCF7
  IC50: 6.77 µM
PC-3 [18]
  Activity: 18.17%
[19]
  Activity: Non-Toxic
[20]
  F: 20.28%
[21]
  Activity: Non-Toxic
[22]
  t1/2: 2.95 h
PC-3 [23]
  inhibition: inactive
[24]
  Activity: Non-Toxic
PC-3 [25]
  Activity: 23.96%
PC-3 [26]
  inhibition: inactive
[27]
  CL: 0.49 L/h/kg
[28]
  Activity: Non-Toxic
PC-3 [29]
  inhibition: inactive
[30]
  Activity: Non-Toxic
PC-3 [31]
  Activity: 18.36%
[32]
  Cmax: 412 ng/mL
HepG2
  IC50: 5.76 µM
[33]
  Activity: Non-Toxic
[34]
  Activity: Active
PC-3 [35]
  Activity: Active
